The values below come from patent US20070066681A1, “Pharmaceutical composition for treating fatty liver or hepatic disease” (CHUGAI SEIYAKU KAUSHIKI KAISHA, priority 2003, published 2007).

Common to all, as to assay type: in vivo
Assay [1] concerns excess apoAI expressing mice fed with high fat diet. Nature of the assay: Action of BO-653 on excess apoAI expressing mice fed with high fat diet (fatty liver and associated hepatic disease). The conditions noted are these: for AST (serum) / Liver weight / Total cholesterol (serum): 0.6% BO-653 or 0.5% probucol in high fat diet, 37 weeks of feeding, mean ± standard error; for blood AST compared with high fat diet group (in words) / liver weight compared with high fat diet group (in words): drug-containing high fat diet vs high fat diet only, 37 weeks. From the text: The therapeutic activity of BO-653 against fatty liver and associated hepatic disease was investigated using excess apoAI expressing mice which were fed with a high fat diet to induce fatty liver and further develop hepatic diseases.
ApoAI, i.e., apolipoprotein AI, is an apolipoprotein constituting high density lipoproteins mainly responsible for blood lipid metabolism in rodents including mice. In mice expressing excess apoAI, blood cholesterol levels are originally high. Thus, even if they are fed with a high fat diet for causing the onset of fatty liver, increases in blood cholesterol are relatively small. Such mice are advantageous in that the influence of changes in blood cholesterol on the results of the test need not be considered in evaluating the therapeutic activity of BO-653 against fatty liver and associated hepatic disease.
(§1) Mice expressing excess apoAI (female, 10 to 11 weeks of age, purchased from Jackson Laboratories) were divided into 4 groups of N-animals. The animals of the respective groups were fed with a normal diet, a high fat diet, a 0.6% BO-653-containing high fat diet (hereinafter referred to as B+ high fat diet), and a 0.5% probucol-containing high fat diet (hereinafter referred to as P+ high fat diet).
(§2) The B+high fat diet and the P+ high fat diet were prepared by removing cellulose in amounts corresponding to 0.60% and 0.50%, respectively, from the high fat diet of the above composition, and adding the corresponding amounts of BO-653 and probucol, respectively, to the remaining composition. Probucol is a liposoluble antioxidant.
(§3) Serum was separated from the collected blood, and AST and total cholesterol in the serum were measured with an autoanalyzer (COBS FARAII ROCHE). The entire body of the animal subjected to the laparotomy and blood collection was perfused with physiological saline, and the weight of the liver was measured.

The subject of assay [2] is C57BL/6J mice fed with high fat diet. Nature of the assay: Same high fat diet test in C57BL/6J mice expressing apolipoprotein AI normally. The conditions noted are these: B+ high fat diet (0.6% BO-653), only high fat diet: 275±31. As for the experimental part:
as §1, §2, §3
(§4) The same tests were conducted using C57BL/6J mice (female, 6 weeks of age, purchased from CLEA Japan) expressing apolipoprotein AI normally, and apoAI deficiency mice (female, 10 to 11 weeks of age, purchased from Jackson Laboratories) expressing no apolipoprotein AI in contrast to the animals in the present Test Example.

Assay [3] has as its system apoAI deficiency mice fed with high fat diet. Nature of the assay: Same high fat diet test in apoAI deficiency mice. The conditions noted are these: B+ high fat diet (0.6% BO-653), only high fat diet: 159±10. As for the experimental part:
as §1, §2, §3, §4

For the next assay, the system named is apoE deficiency mice. Description: Effect of BO-653 in apoE deficiency mice. On the procedure:
Besides, the effect of BO-653 was tested using apoE deficiency mice. These mice are known as mice showing high blood total cholesterol levels even on a normal diet and, at the same time, show high blood AST even on a normal diet.

For the compound `CCCCCC1(CCCCC)Cc2c(cc(C(C)(C)C)c(O)c2C(C)(C)C)O1` [BO-653, 4,6-di-t-butyl-5-hydroxy-2,2-di-n-pentyl-2,3-dihydrobenzofuran], in assay [1], the “AST (serum)” value came out at 96 ± 7 U/L, the Liver weight turned out to be 2789 ± 106 mg, the “Total cholesterol (serum)” value is 353 ± 32 mg/dL and the “blood AST compared with high fat diet group (in words)” value is on record as “greatly lower”. For the same compound, the “liver weight compared with high fat diet group (in words)” value in assay [1] was “significantly less”. For the same compound, in assay [1] (decline in blood AST, B+ vs P+ high fat diet), the “suppression of AST leakage from liver cells, action relative to probucol” value is listed as “several times as high as that of probucol”. In addition, the “serum AST” value in assay [2] amounted to 181±18. In assay [3], the “blood ASL” value was found to be 85±8. In addition, in the assay with apoE deficiency mice, the “blood AST” value is on record as “lowered” and the “blood total cholesterol values” is “without involving changes”.

With `CC(C)(Sc1cc(C(C)(C)C)c(O)c(C(C)(C)C)c1)Sc1cc(C(C)(C)C)c(O)c(C(C)(C)C)c1` [probucol, reference compound], in assay [1], the “AST (serum)” value turned out to be 218 ± 18 U/L, the Liver weight was determined as 2923 ± 185 mg, the “Total cholesterol (serum)” value is reported as 203 ± 10 mg/dL and the “blood AST compared with high fat diet group (in words)” value is listed as “not as great as those in the B+ high fat diet group”. Also, the “liver weight compared with high fat diet group (in words)” value in assay [1] is “not as great as those in the B+ high fat diet group”.
